# Experimental data published in patent US10918585B2, “Anti-aging agent and anti-aging composition for skin” (SHOWA DENKO K.K., priority 2015, dated 2021).
# Key:
# elastin genes = assay: Expression of elastin genes in normal human fibroblasts (quantitative real-time PCR, standardized to GAPDH); format: cell-based; details: NB1RGB cells, 0.001 w/v % myo-inositol, 24 hours, purified water = 1.00
# Protocol: (§1) The gene expression of collagen and elastin in normal human fibroblasts was examined. Further, it has been known that a decrease in expression level of collagen and elastin due to cellular aging causes wrinkles.
# (§2) NB1RGB cells (purchased from Riken BioResource Center), which are normal human fibroblasts, were seeded in a plastic dish at a seeding density of 10000 cells/cm^2 and cultured in Dulbecco's Modified Eagle's medium (DMEM) (manufactured by Sigma-Aldrich Corporation) containing 10% fetal bovine serum for 24 hours. Thereafter, each inositol derivative of Examples 1 to 6 and Comparative Example 1 in a state of being dissolved in purified water was added to the medium at a final concentration of 0.01 w/v % and further cultured for 24 hours. […]
# (§3) Next, total RNA was extracted from cells of each group to synthesize cDNA. Next, the expression levels of collagen genes and elastin genes in NB1RGB cells of each group were quantified by performing quantitative real-time PCR using the cDNA as a template. Further, the expression level of glyceraldehyde-3-phospahte dehydrogenase (GAPDH), which is a housekeeping gene, was quantified as an internal standard gene, and the expression levels of collagen genes and elastin genes were respectively standardized based on the expression level of the GAPDH genes in the NB1RGB cells of each group. […]
# collagen genes = assay: Expression of collagen genes in normal human fibroblasts (quantitative real-time PCR, standardized to GAPDH); format: cell-based; details: NB1RGB cells, 24 hours
# Protocol: as §1, §2, §3
compound,measurement,setting,value
O[C@H]1[C@H](O)[C@@H](O)[C@H](O)[C@@H](O)[C@H]1O [myo-Inositol],Expression level of genes (relative value) Elastin,elastin genes,1.23 relative value
same,Expression level of genes (relative value) Collagen,"collagen genes; 0.001 w/v % myo-inositol, standardized to GAPDH, purified water = 1.00",0.54 relative value
same,Expression of collagen genes compared to the purified water as a control (in words),"collagen genes; inositol derivatives 0.01 w/v %, myo-inositol 0.001 w/v %",a decrease in expression of collagen genes was shown
